Starred links: 1 amine or outer side, 2 acyl side, 3 side chain; linkers in the order of their positions; H or OH if unused. Non-standard residues stand in square brackets, D forms with d. Residues, ends and D or L forms follow the SMILES beside them. Groups on a side chain read outwards from the residue. *: point of attachment. C18 diacid = O=C(O)CCCCCCCCCCCCCCCCC(=O)*; C16 diacid = O=C(O)CCCCCCCCCCCCCCC(=O)*; γGlu = O=C(O)[C@H](CCC(=O)[*:2])N[*:1]; Glutaryl = O=C(CCCC(=O)[*:2])[*:1]; Nle = CCCC[C@H](N)C(=O)O; AEEA = NCCOCCOCC(=O)O; Aib = CC(C)(N)C(=O)O
Biological target: T1, human GIP receptor (Homo sapiens, UniProt P48546)
T1 construct: host or cells: HEK-293 cells, transient transfection (Lipofectamine 2000), cDNA in pCMV-Script vector
T1 sequence (P48546 22-466): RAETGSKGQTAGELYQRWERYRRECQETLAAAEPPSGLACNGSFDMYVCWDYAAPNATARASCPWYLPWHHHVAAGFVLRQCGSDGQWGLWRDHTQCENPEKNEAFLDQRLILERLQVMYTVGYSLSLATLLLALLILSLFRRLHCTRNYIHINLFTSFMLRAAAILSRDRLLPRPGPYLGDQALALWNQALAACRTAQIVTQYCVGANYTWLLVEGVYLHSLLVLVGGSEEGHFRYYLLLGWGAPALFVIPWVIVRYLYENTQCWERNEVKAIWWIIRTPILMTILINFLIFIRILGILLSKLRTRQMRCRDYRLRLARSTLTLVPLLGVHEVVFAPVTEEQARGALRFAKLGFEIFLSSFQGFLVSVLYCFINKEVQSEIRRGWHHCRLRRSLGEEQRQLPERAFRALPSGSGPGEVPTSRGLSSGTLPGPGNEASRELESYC
Experiment: cAMP assay Alternative 1 (CisBio assay), GIPR antagonism
Format: cell-based
Details: Table 2B; % inhibition of Emax
Procedure: HEK293 cells were cultured in 10% CO2 and 37° C. in Dulbecco's modified Eagle's medium supplemented with 10% fetal bovine serum, 2 mM glutamine, 180 units/ml penicillin, and 45 µg/ml streptomycin. Transient transfection with hGIPR for the CisBio assay from Table 2C was performed by using Lipofectamine 2000.
The in vitro functional activity of compounds towards human GIP receptor can also be determined in HEK-293 cells transiently expressing the receptor. On the day of the assay, cells were resuspended in HBSS buffer (Gibco, 14025-50) supplemented with […] (Gibco, 15630-106), 0.1% Pluronic F-68 (Gibco, 24040-032) and 0.1% casein (Sigma, C4765), and plated in 384-well plates at a density of 5000 cells/well. The GIP peptide analogues of the present disclosure were diluted in HBSS buffer supplemented with 20 mM HEPES, 0.1% pluronic, 0.1% casein and 500 uM IBMX. […] The resulting decrease in intracellular cAMP was quantitatively determined using the CisBio cAMP Dynamic 2 HTRF Assay Kit. The assay is based on a competition between native cAMP produced by cells and cAMP labeled with the dye d2 for binding to a cryptate labeled antibody. The specific signal (i.e. energy transfer signal) is inversely proportional to the concentration of cAMP in the sample.
The cAMP-d2 conjugate and the antibody anti-cAMP-Cryptate, both diluted in lysis buffer provided in the kit, were added to the cells according to the manufacturer's protocol. The resulting competitive assay was incubated for 60 minutes at room temperature, and the signal was detected by using a PerkinElmer Envision® instrument with excitation at 320 nm and emission at 665 nm and 620 nm. The HTRF ratio (emission at 665 nm/620 nm*10,000) is inversely proportional to the amount of cAMP present and is converted to nM cAMP per well using a cAMP standard curve. The dose-response curves were fitted using the non-linear regression analysis (four-logistic parameter equation) in GraphPad Prism, whereby pIC50 values were estimated. To test for agonistic properties at the GIP receptor, compounds were diluted and added to cells as described above and incubated for 30 min at 37° C. The resulting increase in intracellular cAMP was determined using the CisBio cAMP Dynamic 2 HTRF Assay Kit as described above.
The dose-response curves were fitted using the non-linear regression analysis (four-logistic parameter equation) in GraphPad Prism, whereby pIC50 values were estimated.

SMILES | cAMP antagonism % inhib
CC[C@H](C)[C@H](NC(=O)[C@H](CO)NC(=O)[C@H](Cc1ccc(O)cc1)NC(=O)[C@H](CCC(=O)O)NC(=O)[C@H](CO)NC(=O)[C@@H](NC(=O)[C@H](Cc1ccccc1)NC(=O)[C@@H](NC(=O)CNC(=O)[C@@H](N)CCC(=O)O)[C@@H](C)O)[C@@H](C)CC)C(=O)N[C@@H](C)C(=O)N[C@@H](CCSC)C(=O)N[C@@H](CCC(=O)O)C(=O)N[C@@H](CCCCN)C(=O)N[C@H](C(=O)N[C@@H](CCCCNC(=O)CCCCCCCCCCCCCCC(=O)O)C(=O)N[C@@H](CCC(N)=O)C(=O)N[C@@H](CCC(N)=O)C(=O)N[C@@H](CCC(=O)O)C(=O)N[C@@H](Cc1ccccc1)C(=O)N[C@H](C(=O)N[C@@H](CCC(=O)O)C(=O)N[C@@H](Cc1c[nH]c2ccccc12)C(=O)N[C@@H](CC(C)C)C(=O)N[C@@H](CC(C)C)C(=O)N[C@@H](C)C(=O)N[C@@H](CCC(N)=O)C(=O)N[C@@H](CCCCN)C(=O)N1CCC[C@H]1C(=O)N[C@@H](CO)C(=O)N[C@@H](CO)C(=O)NCC(=O)N[C@@H](C)C(=O)N1CCC[C@H]1C(=O)N1CCC[C@H]1C(=O)N1CCC[C@H]1C(=O)N[C@@H](CO)C(=O)O)C(C)C)[C@@H](C)CC [AT614] (H-EGTFISEYSIAMEKIK(C16 diacid)QQEFVEWLLAQKPSSGAPPPS-OH; N-terminus assumed) | 100%
CCCC[C@H](NC(=O)[C@H](C)NC(=O)[C@@H](NC(=O)[C@H](CO)NC(=O)[C@H](Cc1ccc(O)cc1)NC(=O)[C@H](CC(=O)O)NC(=O)[C@H](CO)NC(=O)[C@@H](NC(=O)[C@H](Cc1ccccc1)NC(=O)[C@@H](NC(=O)CNC(=O)CCCC(=O)O)[C@@H](C)O)[C@@H](C)CC)[C@@H](C)CC)C(=O)N[C@@H](CC(=O)O)C(=O)N[C@@H](CCCCN)C(=O)N[C@H](C(=O)N[C@@H](CCCCNC(=O)COCCOCCNC(=O)COCCOCCNC(=O)CC[C@H](NC(=O)CCCCCCCCCCCCCCCCC(=O)O)C(=O)O)C(=O)N[C@@H](CCC(N)=O)C(=O)N[C@@H](CCC(N)=O)C(=O)N[C@@H](CC(=O)O)C(=O)N[C@@H](Cc1ccccc1)C(=O)N[C@H](C(=O)N[C@@H](CCC(=O)O)C(=O)N[C@@H](Cc1c[nH]c2ccccc12)C(=O)N[C@@H](CC(C)C)C(=O)N[C@@H](CC(C)C)C(=O)N[C@@H](C)C(=O)N[C@@H](CCC(N)=O)C(=O)N[C@@H](CCCCN)C(=O)N1CCC[C@H]1C(=O)N[C@@H](CO)C(=O)N[C@@H](CO)C(=O)NCC(=O)N[C@@H](C)C(=O)N1CCC[C@H]1C(=O)N1CCC[C@H]1C(=O)N1CCC[C@H]1C(=O)N[C@@H](CO)C(=O)O)C(C)C)[C@@H](C)CC [AT702] (Glutaryl-GTFISDYSIA[Nle]DKIK([AEEA-AEEA-γGlu-C18 diacid])QQDFVEWLLAQKPSSGAPPPS-OH) | 85%
CCCC[C@H](NC(=O)[C@H](C)NC(=O)[C@@H](NC(=O)[C@H](CO)NC(=O)[C@H](Cc1ccc(O)cc1)NC(=O)[C@H](CC(=O)O)NC(=O)[C@H](CO)NC(=O)[C@@H](NC(=O)[C@H](Cc1ccccc1)NC(=O)[C@@H](NC(=O)CNC(=O)[C@@H](N)CCC(=O)O)[C@@H](C)O)[C@@H](C)CC)[C@@H](C)CC)C(=O)N[C@@H](CC(=O)O)C(=O)N[C@@H](CCCCN)C(=O)N[C@H](C(=O)N[C@@H](CCCCNC(=O)COCCOCCNC(=O)COCCOCCNC(=O)CC[C@H](NC(=O)CCCCCCCCCCCCCCCCC(=O)O)C(=O)O)C(=O)N[C@@H](CCC(N)=O)C(=O)N[C@@H](CCC(N)=O)C(=O)N[C@@H](CC(=O)O)C(=O)N[C@@H](Cc1ccccc1)C(=O)N[C@H](C(=O)N[C@@H](CCC(=O)O)C(=O)N[C@@H](Cc1c[nH]c2ccccc12)C(=O)N[C@@H](CC(C)C)C(=O)N[C@@H](CC(C)C)C(=O)N[C@@H](C)C(=O)N[C@@H](CCC(N)=O)C(=O)N[C@@H](CCCCN)C(=O)N1CCC[C@H]1C(=O)N[C@@H](CO)C(=O)N[C@@H](CO)C(=O)NCC(=O)N[C@@H](C)C(=O)N1CCC[C@H]1C(=O)N1CCC[C@H]1C(=O)N1CCC[C@H]1C(=O)N[C@@H](CO)C(=O)O)C(C)C)[C@@H](C)CC [AT683] (H-EGTFISDYSIA[Nle]DKIK([AEEA-AEEA-γGlu-C18 diacid])QQDFVEWLLAQKPSSGAPPPS-OH; N-terminus assumed) | 93%
CCCC[C@H](NC(=O)C(C)(C)NC(=O)[C@@H](NC(=O)[C@H](CO)NC(=O)[C@H](Cc1ccc(O)cc1)NC(=O)[C@H](CC(=O)O)NC(=O)[C@H](CO)NC(=O)[C@@H](NC(=O)[C@H](Cc1ccccc1)NC(=O)[C@@H](NC(=O)CNC(=O)[C@@H](N)CCC(=O)O)[C@@H](C)O)[C@@H](C)CC)[C@@H](C)CC)C(=O)N[C@@H](CC(=O)O)C(=O)N[C@@H](CCCCN)C(=O)N[C@H](C(=O)N[C@@H](CCCCNC(=O)CCCCCCCCCCCCCCC(=O)O)C(=O)N[C@@H](CCC(N)=O)C(=O)N[C@@H](CCC(N)=O)C(=O)N[C@@H](CC(=O)O)C(=O)N[C@@H](Cc1ccccc1)C(=O)N[C@H](C(=O)N[C@@H](CCC(=O)O)C(=O)N[C@@H](Cc1c[nH]c2ccccc12)C(=O)N[C@@H](CC(C)C)C(=O)N[C@@H](CC(C)C)C(=O)N[C@@H](C)C(=O)N[C@@H](CCC(N)=O)C(=O)N[C@@H](CCCCN)C(=O)N1CCC[C@H]1C(=O)N[C@@H](CO)C(=O)N[C@@H](CO)C(=O)NCC(=O)N[C@@H](C)C(=O)N1CCC[C@H]1C(=O)N1CCC[C@H]1C(=O)N1CCC[C@H]1C(=O)N[C@@H](CO)C(=O)O)C(C)C)[C@@H](C)CC [AT667] (H-EGTFISDYSI[Aib][Nle]DKIK(C16 diacid)QQDFVEWLLAQKPSSGAPPPS-OH; N-terminus assumed) | 86%
CC[C@H](C)[C@H](NC(=O)[C@H](CO)NC(=O)[C@H](Cc1ccc(O)cc1)NC(=O)[C@H](CC(=O)O)NC(=O)[C@H](CO)NC(=O)[C@@H](NC(=O)[C@H](Cc1ccccc1)NC(=O)[C@@H](NC(=O)CNC(=O)[C@@H](N)CCC(=O)O)[C@@H](C)O)[C@@H](C)CC)C(=O)N[C@@H](C)C(=O)N[C@@H](CCSC)C(=O)N[C@@H](CC(=O)O)C(=O)N[C@@H](CCCCN)C(=O)N[C@H](C(=O)N[C@@H](CCCCNC(=O)CCCCCCCCCCCCCCC(=O)O)C(=O)N[C@@H](CCC(N)=O)C(=O)N[C@@H](CCC(N)=O)C(=O)N[C@@H](CC(=O)O)C(=O)N[C@@H](Cc1ccccc1)C(=O)N[C@H](C(=O)N[C@@H](CCC(=O)O)C(=O)N[C@@H](Cc1c[nH]c2ccccc12)C(=O)N[C@@H](CC(C)C)C(=O)N[C@@H](CC(C)C)C(=O)N[C@@H](C)C(=O)N[C@@H](CCC(N)=O)C(=O)N[C@@H](C)C(=O)N1CCC[C@H]1C(=O)N[C@@H](CO)C(=O)N[C@@H](CO)C(=O)NCC(=O)N[C@@H](C)C(=O)N1CCC[C@H]1C(=O)N1CCC[C@H]1C(=O)N1CCC[C@H]1C(=O)N[C@@H](CO)C(=O)O)C(C)C)[C@@H](C)CC [AT623] (H-EGTFISDYSIAMDKIK(C16 diacid)QQDFVEWLLAQAPSSGAPPPS-OH; N-terminus assumed) | 98%

— patent US20230416330A1, “Optimized GIP Peptide Analogues” (Antag Therapeutics ApS, priority 2019, published 2023)
